Reference: patent publication US20140377350A1, “BILAYER TABLET FORMULATIONS OF FLURBIPROFEN AND GLUCOSAMIN” (Sanovel Ilac Sanayi Ve Ticaret Anonim Sirketi, priority 2012, published 2014)

Tests used:
[1] = cited from earlier work
[2] = in-vitro release (dissolution) of the actives from the bilayer tablet, USP paddle method; type: physicochemical; conditions: 900 ml phosphate buffer pH 7.2, 37° C., 50 RPM
Description: Therefore, the release profiles of the actives are as follows; the maximum 40% of total amount of flurbiprofen is released in 2 hours and 50-80% in 6 hours and at least 75% in 8 hours in 900 ml of phosphate buffer at pH 7.2 at 37° C. using USP paddle method rotating at 50 RPM. Glucosamine is released immediately and minimum 75% of the total amount is dissolved in 60 min.

- total amount of flurbiprofen released ([2]; in 2 hours): ≤ 40%
- total amount of flurbiprofen released ([2]; in 6 hours): 50-80%
Structure (SMILES): CC(C(=O)O)c1ccc(-c2ccccc2)c(F)c1 (stereo not drawn) [flurbiprofen, Flurbiprofen]
- solubility in water [1]: practically insoluble
